Measured values from paper PMC11241330, “Development of a Radiolabeled Cyclin-Dependent Kinases 4 and 6 (CDK4/6) Inhibitor for Brain and Cancer PET Imaging” (International Journal of Molecular Sciences, 2024).

Key:
CDK4 = molecular target: T1, CDK4 (Homo sapiens, UniProt P11802); test: luminescence kinase activity assay (BPS Bioscience CDK4/CyclinD3 kit #[…]); assay type: biochemical
T1 construct: purified recombinant CDK4/CyclinD3; with CyclinD3

CDK6 = molecular target: T2, CDK6 (Homo sapiens, UniProt Q00534); test: luminescence kinase activity assay (BPS Bioscience CDK6/CyclinD3 kit #[…]); assay type: biochemical
T2 construct: purified recombinant CDK6/CyclinD3; with CyclinD3
T2 sequence (Q00534 whole entry): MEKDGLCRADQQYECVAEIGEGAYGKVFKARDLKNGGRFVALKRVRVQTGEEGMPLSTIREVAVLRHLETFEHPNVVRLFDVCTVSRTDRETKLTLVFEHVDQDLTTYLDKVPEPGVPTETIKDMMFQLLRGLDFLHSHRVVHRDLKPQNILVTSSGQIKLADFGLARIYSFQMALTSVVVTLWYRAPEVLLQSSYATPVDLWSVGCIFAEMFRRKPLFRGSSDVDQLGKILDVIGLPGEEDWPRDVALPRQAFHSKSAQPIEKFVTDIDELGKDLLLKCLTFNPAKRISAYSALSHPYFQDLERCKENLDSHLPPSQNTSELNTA
T2 sequence (P30281 whole entry partner): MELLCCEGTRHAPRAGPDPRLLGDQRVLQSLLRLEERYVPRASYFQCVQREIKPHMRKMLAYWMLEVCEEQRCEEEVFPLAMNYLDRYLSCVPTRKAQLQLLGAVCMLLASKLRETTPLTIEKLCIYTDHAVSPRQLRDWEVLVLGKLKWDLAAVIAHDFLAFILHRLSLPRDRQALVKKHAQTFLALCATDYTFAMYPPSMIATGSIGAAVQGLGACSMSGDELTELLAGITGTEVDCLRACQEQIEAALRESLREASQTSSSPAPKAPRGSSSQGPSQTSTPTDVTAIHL

T1 sequence (P11802 2-303): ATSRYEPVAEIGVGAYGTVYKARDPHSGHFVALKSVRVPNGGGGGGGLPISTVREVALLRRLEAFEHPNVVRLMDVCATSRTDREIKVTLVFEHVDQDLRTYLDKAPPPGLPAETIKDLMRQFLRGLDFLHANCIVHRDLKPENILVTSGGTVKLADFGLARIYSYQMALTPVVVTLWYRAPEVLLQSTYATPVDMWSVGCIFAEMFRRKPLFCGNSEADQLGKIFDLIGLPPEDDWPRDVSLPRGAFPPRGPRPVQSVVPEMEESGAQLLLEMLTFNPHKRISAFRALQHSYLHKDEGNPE
T1 sequence (P30281 whole entry partner): as the sequence (P30281 whole entry partner) above

`CC(C)n1cnc2c(F)cc(-c3nc(Nc4ccc(CN5CCN(Cc6ccc(F)cc6)CC5)cn4)ncc3F)cc21` [NT431, 5-fluoro-4-(4-fluoro-1-isopropyl-1H-benzo[d]imidazol-6-yl)-N-(5-((4-(4-fluorobenzyl)piperazin-1-yl)methyl)pyridin-2-yl)pyrimidin-2-amine] was tested, and the IC50 (CDK4) was 23.7 nM and the IC50 (CDK6) was 47.1 nM.
